Experimental data taken from US6586216B2 (Purdue Research Foundation, priority 1997, dated 2003).
Where “and” joins values, the source holds several entries; their conditions need not be identical. Equal values may be shown once. Read-outs that look alike come from different tables or passages of the source.

Columns and labels:
[1] = molecular target: T1, Bacillus subtilis glutamine PRPP amidotransferase, wild type (Bacillus subtilis, UniProt P00497); assay: Nucleotide binding by equilibrium dialysis, wild type enzyme; details: for Capacity: at saturation
T1 construct: Enzymes of the B. subtilis class are synthesized with an NH2 terminal propeptide; made in house; host or cells: E. coli strain TX158 (purF), plasmid pGZ1
Procedure: (§1) Plasmid pGZ1 was used for production of the wild type enzyme. […] For construction of mutants, the EcoRI-HindIII purF^+ DNA was transferred to pUC118 to yield pBsF. […] The resulting plasmids were named pBsF/S283A, pBsF/K305Q, pBsF/R307Q, and pBsF/S347A.
For enzyme purification, all buffers were sparged with nitrogen gas prior to use in order to minimize oxidation of the enzyme's Fe-S cluster. All steps were carried out at 4° C. Cells were resuspended in 4 mL/gram of buffer A [50 mM Tris-HCl (pH 8.0), 10 mM MgCl2, 0.1 mM EDTA, 5 mM DTT, and 2 mM AMP] containing 1 mM PMSF, and were disrupted by two passes through a French Press. The cell extract was obtained by centrifugation for 1 h at 27,000 g. Protamine sulfate (5 mg per gram of cells) was added to the extract to precipitate DNA. […] After centrifugation, enzyme in the brown pellet was recovered by extraction twice with 30% saturated ammonium sulfate. A small colorless pellet that remained was discarded, and the dark brown enzyme solution in buffer A containing residual ammonium sulfate was stored as beads in liquid nitrogen. […] For assays of activity, the enzyme was diluted 1:1000 in […] Tris-HCl (pH 8.0) containing 1 mg/mL bovine serum albumin. For measurements of ligand binding by equilibrium dialysis and for crystallization experiments, the enzyme was dialyzed anaerobically against buffer B [50 mM Tris-HCl (pH 8.0), 0.1 mM EDTA, and 5 mM DTT] prior to being used.
Nucleotide binding was determined by equilibrium dialysis using chambers of 150 μL that were separated by a 12000-14000 molecular weight dialysis membrane. […] In some experiments, the chambers with radioactive nucleotide also contained a fixed concentration of a second non-radioactive nucleotide. The other chamber contained 50 mM Tris-HCl (pH 7.5) and 50-200 μM enzyme, calculated as the subunit concentration, in a volume of 100 μL. Dialysis was carried out for 20 h at room temperature (˜22° C.) in a rotating apparatus. Samples of 80 μL were retrieved from each chamber and were counted for radioactivity. All experiments were performed in an anaerobic glovebox. […] Equilibrium binding data were fit to the Hill equation (Y=C [free ligand]^n/[…]+[free ligand]^n, where Y is the fractional saturation, C is the binding capacity, Kd is the dissociation constant, and n is the Hill coefficient) by nonlinear regression using Ultrafit software (Biosoft, Cambridge, UK).

[2] = molecular target: T1, Bacillus subtilis glutamine PRPP amidotransferase, wild type; assay: Inhibition of enzyme activity (glutamate formation) by nucleotides, wild type; assay type: biochemical; details: for Hill coefficient from inhibition data: determined from inhibition data, PRPP present
Procedure: as §1
(§2) Enzyme activity was assayed by measuring the initial rate of formation of the product glutamate. […] Incubation was at 37° C. for 6 min. […] Reactions were quenched in a boiling water bath for 2 min, and glutamate was determined by the glutamate dehydrogenase method.
(§3) Inhibition by nucleotides was determined by the standard assay to which varied concentrations of nucleotide were added. Synergistic inhibition was determined by varying the concentration of one nucleotide in the presence of a fixed concentration of a second nucleotide. Relative activity (see FIG. 1) refers to the enzyme activity at a given concentration of the varied nucleotide relative to that in the absence of the varied nucleotide. I0.5 values were calculated from plots of relative activity versus varied nucleotide concentration.

[3] = molecular target: T2, Bacillus subtilis glutamine PRPP amidotransferase variant S283A (Bacillus subtilis, UniProt P00497, S294A); assay: Inhibition of enzyme activity (glutamate formation) by nucleotides, mutant S283A; assay type: biochemical; details: for increase of concentration for 50% inhibition relative to wild type: ADP-GMP mixture
T2 construct: Enzymes of the B. subtilis class are synthesized with an NH2 terminal propeptide; made in house; host or cells: E. coli strain TX158 (purF), plasmid pBsF/S283A
From the text: (§4) Plasmid pGZ1 was used for production of the wild type enzyme. Plasmid pGZ1 contains a 1.6 kb EcoRI-HindIII purF^+ fragment (Makaroff, C. A., Zalkin, H., Switzer, R. L., and Vollmer, S. J. (1983) J. Biol. Chem. 258, pp. 10586-10593) inserted into the corresponding sites of pUC18. For construction of mutants, the EcoRI-HindIII purF^+ DNA was transferred to pUC118 to yield pBsF. Mutations were constructed by the method of Kunkel et al. (Kunkel, T. A., Roberts, J. D., and Zakour, R. A. (1987) Methods Enzymol. 154, pp. 367-382) using pBsF phagemid DNA. The resulting plasmids were named pBsF/S283A, pBsF/K305Q, pBsF/R307Q, and pBsF/S347A.
Enzyme activity was assayed by measuring the initial rate of formation of the product glutamate. […] Incubation was at 37° C. for 6 min. The reaction was linear with time for at least 20 min under these conditions of assay. Reactions were quenched in a boiling water bath for 2 min, and glutamate was determined by the glutamate dehydrogenase method. The control reaction mixture contained all the components except PRPP.
as §3
Site directed mutagenesis was utilized to modify amino acids comprising the A site and C site domains of the glutamine PRPP amidotransferase. These modified forms of amidotransferase were analyzed to determine the impact of the mutations on end-product inhibition and enzymatic activity. Inhibition by nucleotides was determined as described in Example 1.

[4] = molecular target: T3, Bacillus subtilis glutamine PRPP amidotransferase variant S347A (Bacillus subtilis, UniProt P00497, S358A); assay: biochemical; assay type: biochemical
T3 construct: Enzymes of the B. subtilis class are synthesized with an NH2 terminal propeptide; made in house; host or cells: E. coli strain TX158 (purF), plasmid pBsF/S347A
From the text: as §4, §2, §3
These modified forms of amidotransferase were analyzed to determine the impact of the mutations on end-product inhibition and enzymatic activity. Inhibition by nucleotides was determined as described in Example 1.

[5] = no fixed nucleotide, pH 7.5, ~22° C., half-saturation of the two sites, read-out: Kd (apparent)
[6] = I0.5, no fixed nucleotide, 2.5 mM PRPP, pH 8.0, 37° C.
[7] = fixed GMP 1.0 mM, read-out: I0.5
[8] = I0.5, fixed GMP 1.4 mM (footnote c)
[9] = fixed ADP 0.5 mM, read-out: I0.5
[10] = no fixed nucleotide, 2.5 mM PRPP, pH 8.0, 37° C., read-out: I0.5
[11] = I0.5, fixed ADP 0.8 mM (footnote c)

T1 sequence (P00497 12-476): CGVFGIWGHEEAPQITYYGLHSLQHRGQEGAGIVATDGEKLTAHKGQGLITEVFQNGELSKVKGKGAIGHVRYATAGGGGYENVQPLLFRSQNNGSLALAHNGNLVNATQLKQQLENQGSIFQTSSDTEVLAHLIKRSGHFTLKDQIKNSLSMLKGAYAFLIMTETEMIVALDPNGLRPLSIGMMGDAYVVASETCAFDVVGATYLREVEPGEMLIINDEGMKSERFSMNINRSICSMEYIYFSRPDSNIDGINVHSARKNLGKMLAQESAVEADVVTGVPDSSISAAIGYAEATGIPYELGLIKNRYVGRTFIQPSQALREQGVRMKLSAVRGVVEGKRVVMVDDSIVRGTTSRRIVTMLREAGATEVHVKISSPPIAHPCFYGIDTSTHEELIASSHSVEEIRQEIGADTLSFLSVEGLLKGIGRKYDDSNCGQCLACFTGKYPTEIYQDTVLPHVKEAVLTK
T2 sequence (P00497 12-476 S294A): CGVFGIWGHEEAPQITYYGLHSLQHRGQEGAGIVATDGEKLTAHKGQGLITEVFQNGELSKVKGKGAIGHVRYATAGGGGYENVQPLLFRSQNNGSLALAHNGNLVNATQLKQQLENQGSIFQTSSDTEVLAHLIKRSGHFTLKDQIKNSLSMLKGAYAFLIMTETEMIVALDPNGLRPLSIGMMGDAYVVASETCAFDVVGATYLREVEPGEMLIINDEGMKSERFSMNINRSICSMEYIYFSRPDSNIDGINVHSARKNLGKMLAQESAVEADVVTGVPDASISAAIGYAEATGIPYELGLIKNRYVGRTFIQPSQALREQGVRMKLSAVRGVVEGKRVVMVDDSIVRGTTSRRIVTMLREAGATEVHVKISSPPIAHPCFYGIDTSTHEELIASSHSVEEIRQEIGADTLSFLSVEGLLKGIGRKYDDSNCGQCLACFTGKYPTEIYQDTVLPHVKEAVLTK
T3 sequence (P00497 12-476 S358A): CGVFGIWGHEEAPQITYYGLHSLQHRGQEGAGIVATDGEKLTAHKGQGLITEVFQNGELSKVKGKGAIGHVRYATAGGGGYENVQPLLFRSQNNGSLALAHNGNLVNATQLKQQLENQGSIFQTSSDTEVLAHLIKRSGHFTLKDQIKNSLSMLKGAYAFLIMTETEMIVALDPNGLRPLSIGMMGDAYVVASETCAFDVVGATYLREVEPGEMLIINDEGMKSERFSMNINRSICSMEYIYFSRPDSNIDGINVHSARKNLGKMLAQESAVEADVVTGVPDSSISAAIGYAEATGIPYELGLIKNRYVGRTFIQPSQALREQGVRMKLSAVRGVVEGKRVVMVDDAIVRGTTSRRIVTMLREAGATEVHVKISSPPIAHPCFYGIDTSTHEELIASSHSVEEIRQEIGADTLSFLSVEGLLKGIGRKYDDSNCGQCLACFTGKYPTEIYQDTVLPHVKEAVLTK

Structure (SMILES)	Capacity ([1]; fixed GMP 1.0 mM)	Kd ([1]; fixed GMP 1.0 mM, read-out: Kd) [µM]	Hill coefficient ([1]; no fixed nucleotide)	Capacity ([1]; no fixed nucleotide)	Kd [1, 5]	Hill coefficient from inhibition data [2]	syn. (decreased I0.5 due to a second nucleotide) ([2]; fixed AMP 0.1 mM) [fold]	syn. (decreased I0.5 due to a second nucleotide) ([2]; fixed GMP 1.0 mM)	IC50 [2, 7] [µM]	concentration for 50% inhibition relative to AMP ([2]; no fixed nucleotide) [fold]	increase of concentration for 50% inhibition relative to wild type [3] [fold]	IC50 [3, 6] [µM]	I0.5 increase relative to wild type ([3]; no fixed nucleotide)	decreased inhibition relative to wild type ([3]; no fixed nucleotide)	IC50 [4, 8] [µM]	IC50 [4, 6] [µM]	syn. (decreased I0.5 due to a second nucleotide) ([4]; fixed GMP 1.4 mM (footnote c)) [fold]	Capacity ([1]; fixed ADP 0.5 mM)	syn. (decreased I0.5 due to a second nucleotide) ([2]; fixed ADP 0.5 mM)	IC50 [2, 9] [µM]	also measured
Nc1ncnc2c1ncn2[C@@H]1O[C@H](COP(=O)(O)OP(=O)(O)O)[C@@H](O)[C@H]1O [ADP]	0.94 ± 0.14 Equivalents bound per subunit	11	1.8	1.83 Equivalents bound per subunit and 1.83 ± 0.26 Equivalents bound per subunit	214 µM and ~214 µM	3.8	1.9	59 fold and 59.0 fold	80	5	30	24000	5-7 fold	5-7 fold	220	8100	37.0	–	–	–	decrease of Kd in the presence of GMP ([1]; GMP present): 20 fold; Kd ([1]; Kd, GMP fixed at either 0.25 or 1.0 mM): ~10 µM; Capacity ([1]; fixed GMP 0.25 mM): 0.82 ± 0.11 Equivalents bound per subunit; Kd ([1]; fixed GMP 0.25 mM, read-out: Kd): 10.4 ± 2.7 µM; IC50 ([2]; I0.5, fixed GMP 0.25 mM): 240 µM; IC50 [2, 6]: 4700 µM; syn. (decreased I0.5 due to a second nucleotide) ([2]; fixed GMP 0.25 mM): 20 fold and 20.0 fold; syn. (decreased I0.5 due to a second nucleotide) ([2]; fixed GMP 0.50 mM): 29.0 fold; IC50 ([2]; fixed GMP 0.50 mM, read-out: I0.5): 160 µM; syn. (decreased I0.5 due to a second nucleotide) ([2]; fixed GMP 2.0 mM): 118.0 fold; IC50 ([2]; fixed GMP 2.0 mM, read-out: I0.5): 40 µM; syn. (decreased I0.5 due to a second nucleotide) ([2]; fixed GMP 4.0 mM): 188.0 fold; IC50 ([3]; I0.5, fixed GMP 0.50 mM): 4800 µM; syn. (decreased I0.5 due to a second nucleotide) ([3]; fixed GMP 0.50 mM): 5.0 fold
Nc1ncnc2c1ncn2[C@@H]1O[C@H](COP(=O)(O)O)[C@@H](O)[C@H]1O [AMP]	1.05 ± 0.21 Equivalents bound per subunit	103	3.4	1.57 Equivalents bound per subunit and 1.57 ± 0.27 Equivalents bound per subunit	240 µM and 239 µM	3.3-3.8	–	1.0 fold	940	–	–	6100	5-7 fold	5-7 fold	1800	1500	0.8	approximately 0.4 Equivalents bound per subunit	1.4 fold	640	Capacity ([1]; fixed ADP 0.25 mM): 0.94 ± 0.16 Equivalents bound per subunit; Kd ([1]; fixed ADP 0.25 mM, read-out: Kd): 77 µM; increase of binding affinity by GMP or ADP ([1]; fixed GMP or ADP): 2-3 fold; IC50 [2, 10]: 900 µM; IC50 [4, 11]: 650 µM; syn. (decreased I0.5 due to a second nucleotide) ([4]; fixed ADP 0.8 mM (footnote c)): 2.3 fold
Nc1nc2c(ncn2[C@@H]2O[C@H](COP(=O)(O)O)[C@@H](O)[C@H]2O)c(=O)[nH]1 [GMP]	–	–	–	–	–	–	0.95	–	–	10	13	6600	–	–	–	14000	–	0.98 ± 0.10 Equivalents bound per subunit	63 fold and 63.0 fold	150	increased binding affinity (C site) relative to AMP ([1]; ADP bound to the A site): 3 fold; increased binding affinity (C site) relative to IMP ([1]; ADP bound to the A site): 3 fold; Kd ([1]; Kd, fixed ADP 0.5 mM): 25 µM; Kd ([1]; Kd, no fixed nucleotide, not detected): > 500 µM; Kd for the free enzyme, estimated ([1]; assuming a synergism of 20-fold): approximately 500 μM; Kd ([1]; no fixed nucleotide, binding too weak to detect, read-out: Kd): > 500 µM; IC50 ([2]; fixed AMP 0.1 mM, read-out: I0.5): 9900 µM; concentration for 50% inhibition relative to ADP ([2]; no fixed nucleotide): 2 fold; IC50 [2, 10]: 9400 µM; IC50 ([3]; I0.5, fixed ADP 0.5 mM): 2000 µM; IC50 ([3]; I0.5, fixed ADP 2.5 mM): 1700 µM; syn. (decreased I0.5 due to a second nucleotide) ([3]; fixed ADP 0.5 mM): 3.3 fold; syn. (decreased I0.5 due to a second nucleotide) ([3]; fixed ADP 2.5 mM): 3.9 fold; inhibition compared with wild type ([3]; no fixed nucleotide): similar; IC50 [4, 11]: 440 µM; syn. (decreased I0.5 due to a second nucleotide) ([4]; fixed ADP 0.8 mM (footnote c)): 33.0 fold; I0.5 increase relative to wild type ([4]; inhibition at the C site): 3 fold
